In PMC11061149, “Protein mimetic 2D FAST rescues alpha synuclein aggregation mediated early and post disease Parkinson’s phenotypes” (Nature Communications, 2024):
Values joined by “and” are separate entries in the source; they are usually repeats but may differ in a detail not shown here. Equal entries are not always repeated.

How the values were obtained:
[1] = target: T1, α-Synuclein (αS) aggregation (Homo sapiens, UniProt P37840); assay: Thioflavin T (ThT) dye-based αS aggregation assay (de novo); format: biochemical; conditions: for ThT intensity of Synuclein with ligand, Average / ThT intensity of Synuclein with ligand, Trial 1-3: sheet S17; for ThT intensity of Synuclein with ligand, Average: average of 3 trials, Synuclein alone 206, ThT control 37; for ThT intensity of Synuclein with ligand, Trial 1-3: individual trials, Synuclein alone average 206, ThT control average 37
T1 construct: made in house; host or cells: E. coli BL21(DE3)
Procedure: We used a 2D FAST approach in OPs to identify potent antagonists of the aggregation of αS. In this approach, we start with a library of monopyridyls with different functional groups. The library of monopyridyls was synthesized using 2-chloro-6-methyl-3-nitropyridine as a common precursor, which was treated with primary alcohols with diverse side chain functionalities via a one-pot reaction (Fig. 1B, a and see Supplementary information for synthetic details). […] We selected the side chains containing hydrophobic, polar, positively charged, and negatively charged functional groups, which mimic the side chains of the amino acids (Fig. 1C). […] The monopyridyl library was screened against the aggregation of 100 μM αS at an equimolar ratio using Thioflavin T (ThT) dye-based aggregation assay (Fig. 1B, b). […] The chloro-dipyridyl was reacted with a library of primary amines/thiols to synthesize a library of dipyridyls (Fig. 1B, e) using a one-pot reaction. […] However, a few dipyridyls required column chromatography to separate them from the starting material side chains because of their very high boiling point (7 out of 21 dipyridyls required column, Supplementary Fig. 1). […]
Aggregation Kinetics were measured according to a previously described protocol. […] The solutions were placed in a ThermoMixer (Eppendorf, Hamberg, Germany) at 37 °C with constant shaking at 1300 rpm (rpm). At different time points, 5 μL aliquots of each αS solution were added to 95 μL PBS containing 50 μM Thioflavin T (ThT) dye in a Costar black 96 well plate (Corning Inc., Kennebunk, ME). ThT fluorescence intensity was measured (λex = 450 nm and λem = 490 nm) on an Infinite M200PRO plate reader (Tecan, Männedorf, Switzerland), and plotted against time to give a sigmoidal curve typical of amyloid aggregation. For the single point ThT aggregation, 100 μM αS, in the absence and presence of ligands, was aggregated under the described conditions and the ThT fluorescence was reported at 96 h. The reported ThT intensity values are the average of each experiment conducted in triplicate, with the error bars representing the standard deviations or standard error of the mean (s.e.m.) as described in the main manuscript.

[2] = tested on: UA196 worms (human αS and GFP in DA neurons); assay: Confocal counting of healthy DA neurons in UA196 worms, early treatment (day two and four); format: in vivo, C. elegans; conditions: for number of intact DA neurons in UA196 worms (max. 60): 50 µM ligand on day two and four, day 15 (untreated 13.5); for Number of healthy DA neurons per trial (sheet 7L): UA196 worms + ligand, Day 15, single trials; for Total neurons, UA196 worms+Ligands: one value per trial, day not given for ligand (controls: Day 3, Day 15)
From the text: The aggregation of αS is associated with the neurodegeneration of DA neurons, which is a pathological hallmark of PD. Next, we investigated the neuroprotective effect of NS163 on the intraneuronal αS aggregation-mediated degeneration of DA neurons in a well-established C. elegans PD model (UA196)[20],[72]–[75]. The UA196 worms express both human αS and GFP in DA neurons under the control of the dopamine promoter genotype (Pdat-1::GFP; Pdat-1::α-SYN). The expression and aggregation of αS in six DA neurons that are located within the anterior region of worms lead to progressive neurodegeneration characteristics during the aging of UA196 worms. This strain has been used to gain insights into the PD-associated mechanisms and to assess the neuroprotective effect of ligands against the intraneuronal αS aggregation[20],[72]–[75]. During the aging of worms, αS protein aggregates and degenerates the DA neurons as represented by the gradual loss of cell bodies as observed from day 3 (Fig. 7b, c, filled red arrow) to day 5 (Fig. 7d, e, empty red arrow), to day 15 (Fig. 7f, g, empty red arrow). Additionally, there was fragmentation and blebbing of neurites from day 3 (Fig. 7b, c, filled yellow arrow) to day 5 (Fig. 7d, e, empty yellow arrow), which has been observed by others as well[72]–[75]. The maximum number of healthy DA neurons in one UA196 worm is six on day 3 (no degeneration) and we used 10 worms/biological replicate, which makes a total of 60 healthy DA neurons/biological replicate. Therefore, for each study, the maximum number of healthy DA neurons in UA196 worms is 60 as an average for each biological replicate. […] None of the UA196 worms had all six healthy DA neurons on day 5 (Fig. 7k, -NS163) and there was a gradual decline in the total number of healthy DA neurons in UA196 worms (Supplementary Fig. 26a). […] The average number of intact DA neurons in UA196 worms treated with NS163 was 59.5, 58.7, and 57.3 on day five, 10, and 15, respectively (Fig. 7j, red line). Additionally, the total number of treated worms with all six intact DA neurons were 57, 52, and 47 on day 5, 10, and 15, respectively (Fig. 7k, Supplementary Fig. 26b).
In UA196 strain, human αS and GFP are expressed in DA neurons under control of a dopamine transporter-specific promoter [Pdat-1::α-syn+Pdat-1::GFP], which results in age-dependent neurodegeneration of six DA neurons.
This experiment was performed based on previously described protocols with slight modifications[24],[65],[88]. Briefly, the worm strains (NL5901 or UA196) were bleached at the same time and the eggs were incubated on PLATE 1. On day two, the worms were divided into two batches. One half of the worms were transferred (using M9 buffer) on PLATE 2 (without ligand) and the second half of the worms were transferred to PLATE 3 (with ligand). The concentration of the ligands varied from 10–50 µM as described in the main manuscript. The worms were incubated on PLATE 2 or PLATE 3 up to day 3 at 20 °C in an incubator with constant humidity. On day four, the ligand (10–50 µM, stock conc. = 10 mM in DMSO, DMSO from 0.1–0.5%, v/v) was added again to PLATE 3. For confocal imaging, at least 10 worms per condition (from PLATE 2 or PLATE 3) were transferred to a cover slide containing an anesthetic (40 mM sodium azide), and mounted on glass microscope slide containing 2% agarose pads using a reported protocol. The images of the worms were collected using an Olympus Fluoview FV3000 confocal/2-photon microscope (40 x Plan-Apo/1.3 NA objective with DIC capability) and processed using the OlympusViewer in ImageJ software. For NL5901 worms, the inclusions of the aggregated αS (GFP puncta in the muscle cells) were manually counted (10 worms per condition) for the five-day imaging period (day 5 to day 9) for PLATE 2 or PLATE 3. […]

[3] = tested on: UA196 worms; assay: Confocal counting of healthy DA neurons, post-disease onset PD model of UA196 worms (treatment on day five); format: in vivo, C. elegans; conditions: for number of intact healthy DA neurons (max. 60): day 15 (untreated 13.8 / 12.8); for healthy DA neurons per trial: UA196 worms+Ligands, single trials 1-6, day not given; for Healthy DA neurons, UA196 worms+Ligands: individual trials 1-6
Procedure: The UA196 worms were bleached, and the eggs were incubated on PLATE 1. On day two, the UA196 worms were transferred (using M9 buffer) on PLATE 2 (without ligand). On day five, 10 UA196 worms were used to determine the number of healthy DA worms using confocal imaging (as described earlier) prior to the treatment with ligands on day five. In tandem, ~50 worms were transferred to PLATE 3 (with ligand) using M9 buffer (10-20 µL) and the plate was incubated at 20 °C in the incubator. On days 10 and 15, 10 UA196 worms from PLATE 2 (without ligand) and PLATE 3 (with ligand) were used to determine the number of healthy DA worms using confocal imaging (as described earlier). For each condition, six biological replicates were performed and at least 10 technical replicates were used for each biological replicate. […] (n = 6 independent experiments and each n consisted of a minimum of ten technical replicates).

[4] = 100 µM αS + equimolar ligand, comparison with reported ligands Fig. 5f, time 0 hr

## OCCc1ccc(O)cc1 [Tyrosol]
[1]; [4]
  ThT fluorescence intensity, Average: 49.6667
[1]; Fig. 5f profile, time 6 hr
  ThT fluorescence intensity, Average: 48.3333
[1]; Fig. 5f profile, time 12 hr
  ThT fluorescence intensity, Average: 49.6667
[1]; Fig. 5f profile, time 24 hr
  ThT fluorescence intensity, Average: 78.6667
[1]; Fig. 5f profile, time 36 hr
  ThT fluorescence intensity, Average: 140.667
[1]; Fig. 5f profile, time 48 hr
  ThT fluorescence intensity, Average: 137
[1]; Fig. 5f profile, time 72 hr
  ThT fluorescence intensity, Average: 175.333
[1]; Fig. 5f profile, time 96 hr
  ThT fluorescence intensity, Average: 229.667
[1]
  ThT intensity of Synuclein with ligand, Average: 229.667
  ThT intensity of Synuclein with ligand, Trial 1-3: 238.6 and 233 and 217.4
[2]
  number of intact DA neurons in UA196 worms (max. 60): 21.7
  Number of healthy DA neurons per trial (sheet 7L): 22 and 23 and 17 and 21 and 24
  Total neurons, UA196 worms+Ligands: 22 and 23 and 17 and 21 and 24
[3]; 50 μM ligand on day five
  number of intact healthy DA neurons (max. 60): 14.3
[3]
  healthy DA neurons per trial: 12 and 19 and 17 and 11 and 15
  Healthy DA neurons, UA196 worms+Ligands: 12 and 19 and 17 and 11 and 15

## CCCC(CCC)C(=O)O [Valporic acid]
[1]; [4]
  ThT fluorescence intensity, Average: 62.3333
[1]; Fig. 5f profile, time 6 hr
  ThT fluorescence intensity, Average: 44
[1]; Fig. 5f profile, time 12 hr
  ThT fluorescence intensity, Average: 66.6667
[1]; Fig. 5f profile, time 24 hr
  ThT fluorescence intensity, Average: 135.333
[1]; Fig. 5f profile, time 36 hr
  ThT fluorescence intensity, Average: 121.333
[1]; Fig. 5f profile, time 48 hr
  ThT fluorescence intensity, Average: 133.333
[1]; Fig. 5f profile, time 72 hr
  ThT fluorescence intensity, Average: 167.333
[1]; Fig. 5f profile, time 96 hr
  ThT fluorescence intensity, Average: 165.667
[1]
  ThT intensity of Synuclein with ligand, Average: 165.667
  ThT intensity of Synuclein with ligand, Trial 1-3: 177.5 and 155 and 164.5
[2]
  number of intact DA neurons in UA196 worms (max. 60): 18.7
  Number of healthy DA neurons per trial (sheet 7L): 21 and 16 and 22 and 17 and 20
  Total neurons, UA196 worms+Ligands: 21 and 16 and 22 and 17 and 20
[3]; 50 μM ligand on day five
  number of intact healthy DA neurons (max. 60): 13.5
[3]
  healthy DA neurons per trial: 9 and 17 and 15 and 11 and 16 and 13
  Healthy DA neurons, UA196 worms+Ligands: 9 and 17 and 15 and 11 and 16 and 13

## C=C(c1ccc(C(=O)O)cc1)c1cc2c(cc1C)C(C)(C)CCC2(C)C [Bexarotene]
[1]; [4]
  ThT fluorescence intensity, Average: 55.6667
[1]; Fig. 5f profile, time 6 hr
  ThT fluorescence intensity, Average: 61.3333
[1]; Fig. 5f profile, time 12 hr
  ThT fluorescence intensity, Average: 52.3333
[1]; Fig. 5f profile, time 24 hr
  ThT fluorescence intensity, Average: 42
[1]; Fig. 5f profile, time 36 hr
  ThT fluorescence intensity, Average: 69.6667
[1]; Fig. 5f profile, time 48 hr
  ThT fluorescence intensity, Average: 159.667
[1]; Fig. 5f profile, time 72 hr
  ThT fluorescence intensity, Average: 195
[1]; Fig. 5f profile, time 96 hr
  ThT fluorescence intensity, Average: 186
[1]
  ThT intensity of Synuclein with ligand, Average: 186.333
  ThT intensity of Synuclein with ligand, Trial 1-3: 176 and 194 and 189
[2]
  number of intact DA neurons in UA196 worms (max. 60): 19.3
  Number of healthy DA neurons per trial (sheet 7L): 19 and 22 and 20 and 16 and 21 and 18
  Total neurons, UA196 worms+Ligands: 19 and 22 and 20 and 16 and 21 and 18
[3]; 50 μM ligand on day five
  number of intact healthy DA neurons (max. 60): 13.2
[3]
  healthy DA neurons per trial: 11 and 17 and 13 and 10
  Healthy DA neurons, UA196 worms+Ligands: 11 and 17 and 13 and 10

## O=C(O[C@@H]1Cc2c(O)cc(O)cc2O[C@@H]1c1cc(O)c(O)c(O)c1)c1cc(O)c(O)c(O)c1 [EGCG]
[1]; [4]
  ThT fluorescence intensity, Average: 56
[1]; 100 µM αS, equimolar, after 96 h
  decrease of the overall ThT intensity: ~ 25%
[1]; Fig. 5f profile, time 6 hr
  ThT fluorescence intensity, Average: 50.6667
[1]; Fig. 5f profile, time 12 hr
  ThT fluorescence intensity, Average: 62.3333
[1]; Fig. 5f profile, time 24 hr
  ThT fluorescence intensity, Average: 61.3333
[1]; Fig. 5f profile, time 36 hr
  ThT fluorescence intensity, Average: 75.6667
[1]; Fig. 5f profile, time 48 hr
  ThT fluorescence intensity, Average: 84
[1]; Fig. 5f profile, time 72 hr
  ThT fluorescence intensity, Average: 151.667
[1]; Fig. 5f profile, time 96 hr
  ThT fluorescence intensity, Average: 150.333
[1]
  ThT intensity of Synuclein with ligand, Average: 150.333
  ThT intensity of Synuclein with ligand, Trial 1-3: 126 and 174 and 151
[2]; 50 μM ligand
  rescue of the degeneration of DA neurons in UA196 worms, in words: moderate in rescuing
[2]
  number of intact DA neurons in UA196 worms (max. 60): 30.5
  Number of healthy DA neurons per trial (sheet 7L): 26 and 33 and 32 and 27 and 31 and 34
  Total neurons, UA196 worms+Ligands: 26 and 33 and 32 and 27 and 31 and 34
[3]; 50 μM ligand on day five, day 15
  rescue of the degeneration of DA neurons in the post-disease onset PD model, in words: moderate in rescuing
[3]; 50 μM ligand on day five
  number of intact healthy DA neurons (max. 60): 20.5
[3]
  healthy DA neurons per trial: 24 and 17 and 26 and 18 and 21
  Healthy DA neurons, UA196 worms+Ligands: 24 and 17 and 26 and 18 and 21
